Experimental data as given in US9409898B2, “Substituted pyrazole compounds as CRAC modulators” (LUPIN LIMITED, priority 2012, dated 2016).

Tested on: IL-2 secretion
Assay: Inhibition of IL-2 secretion in PHA-stimulated Jurkat T cells (ELISA)
Format: cell-based
Settings: Homo sapiens, PHA stimulation, 20 to 24 hours, IL-2 by ELISA
Method: The CRAC channel modulatory activity of the compounds were thus evaluated by measuring the secretion of IL-2 by antigen stimulated T-cells in vitro. Alternatively, such activity can also be evaluated by assay methods known to one skilled in the art.
Inhibition of IL-2 secretion: Jurkat T cells were seeded at a density of 0.5 to 1 million cells per well in RPMI medium. Test compounds from this invention were added to the cells at different concentrations. This was followed by the addition of PHA, a T cell mitogen after 10 minutes. The cells were then incubated for 20 to 24 hours in a CO2 incubator at 37° C. After incubation with the compounds, cells were centrifuged, the supernatant was collected and processed for ELISA to quantitate the amount of IL-2 secreted. A commercial ELISA kit (R&D Systems, Inc. Minneapolis, Minn., USA) was used to estimate the IL-2 concentrations. Amount of IL-2 secreted by cells stimulated with PHA was considered as a 100% maximal signal and the decrease in amount of IL-2 secreted by cells treated with the test compounds was expressed as percent inhibition of the maximal signal. The dose response data was analyzed using 4-parametric sigmoidal dose response (variable slope) curve—fit.

IC50 [nM]	SMILES
< 100	Cn1nc(-c2cc(C(F)(F)F)n(-c3ccc(NC(=O)c4c(F)cccc4F)nc3)n2)oc1=O [Example 38, 2,6-Difluoro-N-(5-(3-(4-methyl-5-oxo-4,5-dihydro-1,3,4-oxadiazol-2-yl)-5-(trifluoromethyl)-1H-pyrazol-1-yl)pyridin-2-yl)benzamide]
< 100	Cn1nc(-c2cc(C(F)(F)F)n(-c3ccc(C(=O)Nc4c(F)cccc4Cl)cn3)n2)oc1=O [Example 55, N-(2-Chloro-6-fluorophenyl)-6-(3-(4-methyl-5-oxo-4,5-dihydro-1,3,4-oxadiazol-2-yl)-5-(trifluoromethyl)-1H-pyrazol-1-yl)nicotinamide]
> 1000	Cc1cc(-c2nn(C)c(=O)o2)nn1-c1ccc(NC(=O)c2c(F)cccc2F)cn1 [Example 31, 2,6-Difluoro-N-(6-(5-methyl-3-(4-methyl-5-oxo-4,5-dihydro-1,3,4-oxadiazol-2-yl)-1H-pyrazol-1-yl)pyridin-3-yl)benzamide]
100 to 1000	CC(=O)N1N=C(c2cc(C(F)(F)F)n(-c3ccc(NC(=O)c4c(F)cccc4F)cn3)n2)OC1(C)C [Example 20, N-(6-(3-(4-Acetyl-5,5-dimethyl-4,5-dihydro-1,3,4-oxadiazol-2-yl)-5-(trifluoromethyl)-1H-pyrazol-1-yl)pyridin-3-yl)-2,6-difluorobenzamide]
100 to 1000	Cn1nc(-c2cc(C(F)(F)F)n(-c3ccc(C(=O)Nc4c(F)cccc4F)cn3)n2)oc1=O [Example 54, N-(2,6-Difluorophenyl)-6-(3-(4-methyl-5-oxo-4,5-dihydro-1,3,4-oxadiazol-2-yl)-5-(trifluoromethyl)-1H-pyrazol-1-yl)nicotinamide]
< 100	Cn1nc(-c2cc(C(F)(F)F)n(-c3ccc(NC(=O)c4ccc(F)cc4F)nc3)n2)oc1=O [Example 45, 2,4-Difluoro-N-(5-(3-(4-methyl-5-oxo-4,5-dihydro-1,3,4-oxadiazol-2-yl)-5-(trifluoromethyl)-1H-pyrazol-1-yl)pyridin-2-yl)benzamide]
< 100	Cn1nc(-c2cc(C(F)(F)F)n(-c3ccc(NC(=O)c4ccccc4F)nc3)n2)oc1=O [Example 41, 2-Fluoro-N-(5-(3-(4-methyl-5-oxo-4,5-dihydro-1,3,4-oxadiazol-2-yl)-5-(trifluoromethyl)-1H-pyrazol-1-yl)pyridin-2-yl)benzamide]
< 100	Cn1nc(-c2cc(C(F)(F)F)n(-c3ccc(NC(=O)c4ccc(F)c(F)c4F)nc3)n2)oc1=O [Example 44, 2,3,4-Trifluoro-N-(5-(3-(4-methyl-5-oxo-4,5-dihydro-1,3,4-oxadiazol-2-yl)-5-(trifluoromethyl)-1H-pyrazol-1-yl)pyridin-2-yl)benzamide]
< 100	Cn1nc(-c2cc(C(F)F)n(-c3ccc(NCc4c(F)cccc4F)cn3)n2)oc1=O [Example 12, 5-(1-(5-((2,6-Difluorobenzyl)amino)pyridin-2-yl)-5-(difluoromethyl)-1H-pyrazol-3-yl)-3-methyl-1,3,4-oxadiazol-2(3H)-one]
< 100	CC1(CO)CC(c2cc(C(F)(F)F)n(-c3ccc(NCc4c(F)cccc4F)cn3)n2)=NO1 (stereo not shown) [Example 33, (3-(1-(5-((2,6-Difluorobenzyl)amino)pyridin-2-yl)-5-(trifluoromethyl)-1H-pyrazol-3-yl)-5-methyl-4,5-dihydroisoxazol-5-yl)methanol]
< 100	Cc1cccc(F)c1C(=O)Nc1ccc(-n2nc(-c3nn(C)c(=O)o3)cc2C(F)(F)F)cn1 [Example 40, 2-Fluoro-6-methyl-N-(5-(3-(4-methyl-5-oxo-4,5-dihydro-1,3,4-oxadiazol-2-yl)-5-(trifluoromethyl)-1H-pyrazol-1-yl)pyridin-2-yl)benzamide]
< 100	Cn1nc(-c2cc(C(F)(F)F)n(-c3ccc(NC(=O)c4c(F)cccc4F)cn3)n2)oc1=O [Example 8, 2,6-Difluoro-N-(6-(3-(4-methyl-5-oxo-4,5-dihydro-1,3,4-oxadiazol-2-yl)-5-(trifluoromethyl)-1H-pyrazol-1-yl)pyridin-3-yl)benzamide]
100 to 1000	CCc1ccc(C(=O)Nc2ccc(-n3nc(-c4nn(C)c(=O)o4)cc3C(F)(F)F)cn2)cc1 [Example 49, 4-Ethyl-N-(5-(3-(4-methyl-5-oxo-4,5-dihydro-1,3,4-oxadiazol-2-yl)-5-(trifluoromethyl)-1H-pyrazol-1-yl)pyridin-2-yl)benzamide]
100 to 1000	CN1N=C(c2cc(C(F)(F)F)n(-c3ccc(NC(=O)c4c(F)cccc4F)cn3)n2)C(C)(C)C1=O [Example 16, 2,6-Difluoro-N-(6-(1′,4′,4′-trimethyl-5′-oxo-5-(trifluoromethyl)-4′,5′-dihydro-1H,1′H-[3,3′-bipyrazol]-1-yl)pyridin-3-yl)benzamide]
< 100	Cn1nc(-c2cc(C(F)(F)F)n(-c3ccc(NC(=O)c4ccccc4Cl)nc3)n2)oc1=O [Example 47, 2-Chloro-N-(5-(3-(4-methyl-5-oxo-4,5-dihydro-1,3,4-oxadiazol-2-yl)-5-(trifluoromethyl)-1H-pyrazol-1-yl)pyridin-2-yl)benzamide]
< 100	Cn1nc(-c2cc(C(F)(F)F)n(-c3ccc(NCc4c(F)cccc4F)nc3)n2)oc1=O [Example 51, 5-(1-(6-((2,6-Difluorobenzyl)amino)pyridin-3-yl)-5-(trifluoromethyl)-1H-pyrazol-3-yl)-3-methyl-1,3,4-oxadiazol-2(3H)-one]
< 100	Cc1ccccc1C(=O)Nc1ccc(-n2nc(-c3nn(C)c(=O)o3)cc2C(F)(F)F)cn1 [Example 48, 2-Methyl-N-(5-(3-(4-methyl-5-oxo-4,5-dihydro-1,3,4-oxadiazol-2-yl)-5-(trifluoromethyl)-1H-pyrazol-1-yl)pyridin-2-yl)benzamide]
100 to 1000	CN1N=C(c2cc(C(F)(F)F)n(-c3ccc(NC(=O)c4c(F)cccc4Cl)cn3)n2)C(C)(C)C1=O [Example 17, 2-Chloro-6-fluoro-N-(6-(1′,4′,4′-trimethyl-5′-oxo-5-(trifluoromethyl)-4′,5′-dihydro-1H,1′H-[3,3′-bipyrazol]-1-yl)pyridin-3-yl)benzamide]
100 to 1000	Cn1nc(-c2cc(C(F)(F)F)n(-c3ccc(NC(=O)c4ccc5ccccc5c4)nc3)n2)oc1=O [Example 50, N-(5-(3-(4-Methyl-5-oxo-4,5-dihydro-1,3,4-oxadiazol-2-yl)-5-(trifluoromethyl)-1H-pyrazol-1-yl)pyridin-2-yl)-2-naphthamide]
< 100	Cc1cccc(F)c1CNc1ccc(-n2nc(-c3nn(C)c(=O)o3)cc2C(F)(F)F)cn1 [Example 53, 5-(1-(6-((2-Fluoro-6-methylbenzyl)amino)pyridin-3-yl)-5-(trifluoromethyl)-1H-pyrazol-3-yl)-3-methyl-1,3,4-oxadiazol-2(3H)-one]
< 100	Cn1nc(-c2cc(C(F)(F)F)n(-c3ccc(NC(=O)c4c(F)cccc4Cl)cn3)n2)oc1=O [Example 9, 2-Chloro-6-fluoro-N-(6-(3-(4-methyl-5-oxo-4,5-dihydro-1,3,4-oxadiazol-2-yl)-5-(trifluoromethyl)-1H-pyrazol-1-yl)pyridin-3-yl)benzamide]
100 to 1000	Cc1cccc(F)c1C(=O)Nc1ccc(-n2nc(C(F)(F)F)cc2-c2nn(C)c(=O)o2)nc1 [Example 2, 2-Fluoro-6-methyl-N-(6-(5-(4-methyl-5-oxo-4,5-dihydro-1,3,4-oxadiazol-2-yl)-3-(trifluoromethyl)-1H-pyrazol-1-yl)pyridin-3-yl)benzamide]
100 to 1000	Cn1nc(-c2cc(C3CC3)nn2-c2ccc(NCc3c(F)cccc3F)cn2)oc1=O [Example 3, 5-(3-Cyclopropyl-1-(5-((2,6-difluorobenzyl)amino)pyridin-2-yl)-1H-pyrazol-5-yl)-3-methyl-1,3,4-oxadiazol-2(3H)-one]
100 to 1000	Cn1nc(-c2cc(C(F)(F)F)nn2-c2ccc(NC(=O)c3c(F)cccc3F)cn2)oc1=O [Example 1, 2,6-Difluoro-N-(6-(5-(4-methyl-5-oxo-4,5-dihydro-1,3,4-oxadiazol-2-yl)-3-(trifluoromethyl)-1H-pyrazol-1-yl)pyridin-3-yl)benzamide]
100 to 1000	CN1N=C(c2cc(C(F)(F)F)n(-c3ccc(NCc4c(F)cccc4F)cn3)n2)C(C)(C)C1=O [Example 24, 1′-(5-((2,6-Difluorobenzyl)amino)pyridin-2-yl)-1,4,4-trimethyl-5′-(trifluoromethyl)-1H,1′H-[3,3′-bipyrazol]-5(4H)-one]
100 to 1000	COC(=O)C1(C)CC(c2cc(C(F)(F)F)n(-c3ccc(NCc4c(F)cccc4F)cn3)n2)=NO1 (stereo not shown) [Example 6, Methyl 3-(1-(5-((2,6-difluorobenzyl)amino)pyridin-2-yl)-5-(trifluoromethyl)-1H-pyrazol-3-yl)-5-methyl-4,5-dihydroisoxazole-5-carboxylate]
< 100	Cn1nc(-c2cc(C(F)(F)F)n(-c3ccc(NCc4c(F)cccc4Cl)cn3)n2)oc1=O [Example 23, 5-(1-(5-((2-Chloro-6-fluorobenzyl)amino)pyridin-2-yl)-5-(trifluoromethyl)-1H-pyrazol-3-yl)-3-methyl-1,3,4-oxadiazol-2(3H)-one]
< 100	Cn1nc(-c2cc(C(F)(F)F)n(-c3ccc(NC(=O)c4cc(F)c(F)cc4F)nc3)n2)oc1=O [Example 43, 2,4,5-Trifluoro-N-(5-(3-(4-methyl-5-oxo-4,5-dihydro-1,3,4-oxadiazol-2-yl)-5-(trifluoromethyl)-1H-pyrazol-1-yl)pyridin-2-yl)benzamide]
